Test results from publication PMC9422153, “A novel antibiotic combination of linezolid and polymyxin B octapeptide PBOP against clinical Pseudomonas aeruginosa strains” (Annals of Clinical Microbiology and Antimicrobials, 2022).
In brackets after ≈: the same amount, converted by molar mass. Like-named read-outs stand apart in the source and are kept apart here. Bridge positions count the residues as written; N and C are the ends. Square brackets hold non-standard residues; d marks the D form. Peptide text beside a SMILES is read from it. Dab = NCC[C@H](N)C(=O)O

Legend:
P. aeruginosa PA2 = experiment: MIC, micro-dilution method; assay type: cell-based; settings: Pseudomonas aeruginosa
Method: (§1) The MICs (minimal inhibitory concentrations) were determined for different P. aeruginosa strains using micro-dilution method, with a concentration of 1 × 10^5 CFU/mL on LB broth for 24 h, according to the published procedures. The experiment was carried out in three repeats.

P. aeruginosa PAB41 = experiment: MIC, micro-dilution method; assay type: cell-based; settings: Pseudomonas aeruginosa
Method: as §1

P. aeruginosa ATCC27853 = experiment: MIC, micro-dilution method; assay type: cell-based; settings: Pseudomonas aeruginosa
Method: as §1

P. aeruginosa PA14 [1] = experiment: MIC, micro-dilution method; assay type: cell-based; settings: Pseudomonas aeruginosa
Method: as §1

P. aeruginosa PA14 [2] = assay type: cell-based, Pseudomonas aeruginosa
Method: Synergistic effect of the 6 polymyxin B or polymyxin E derivatives in combination with 5 conventional antibacterial agents was detected using the checkerboard method as described on the previous study. Briefly, the serial concentrations of test compounds were prepared by a two-dimensional array. The tested dilutions were based on the MICs of the two different compounds. The fractional inhibitory concentration index (FIC) was applied to illuminate the checkerboard test based on formulas as follows: FIC Index = […] = MICA+B/MICA, and FICB = MICB+A/MICB. The value of MICA+B is indicated as the MIC value of Compound A with Compound B, and equally for MICB+A. […] The experiments were repeated in triplicate.

[3] = system: all tested P. aeruginosa strains; assay type: cell-based, Pseudomonas aeruginosa; settings: 24 h
Method: as §1

[4] = system: C. elegans infected with PA14; experiment: C. elegans infection model; assay type: in vivo, Caenorhabditis elegans; settings: PA14 infection on SK plate, linezolid 8 μg/mL, PBOP 16 μg/mL; for bacterial loads inside C. elegans: 12 h and 24 h post infection; for survival of infected C. elegans: monitored 7 days
Method: To determine the protective effect of LP, all groups of C. elegans were infected with PA14 in slow killing (SK) agar plate and were treated with PBS, linezolid (8 μg/mL), PBOP (16 μg/mL) or LP. The mortality of the infected C. elegans was evaluated for 7 days. […] The bacterial loads inside the C. elegans were counted at 12 h or 24 h post-infection as previously described. Briefly, the infected nematodes were mixed with silicon carbide particles and vortexed at maximum speed for one minute. The resulting suspension was serially diluted and plated on a selective agar plate to determine the bacterial CFU. This experiment was performed in triplicate.

PA2 = experiment: Time-kill assay, bacterial burdens in vitro; assay type: cell-based, Pseudomonas aeruginosa; settings: PA2, 1 × 10^5 CFU in 96-well plates; 1 h, 6 h, 12 h, 24 h; LP compared to single-treated groups
Method: (§2) To explore the antibacterial activity of LP combination in the P. aeruginosa in vitro, PA14 were cultured in 96-well plates and were treated with PBS, linezolid, PBOP or LP for 1 h, 6 h, 12 h, and 24 h.
(§3) A1–A4 1 × 10^5 CFU of PA14 were seeded in 96-well plates and treated with PBS, linezolid, PBOP or combination of linezolid and PBOP (LP) for 1 h (A1), 6 h (A2), 12 h (A3), and 24 h (A4). The bacteria burdens on the LB agar plates were counted. B1–B4 1 × 10^5 CFU of PA2 were seeded in 96-well plates and treated with PBS, linezolid, PBOP or LP for 1 h (B1), 6 h (B2), 12 h (B3), and 24 h (B4). C1–C4 1 × 10^5 CFU of PAB41 were seeded in 96-well plates and treated with PBS, linezolid, PBOP or LP for 1 h (C1), 6 h (C2), 12 h (C3), and 24 h (C4). The bacteria burdens were determined as described above.

PAB41 = experiment: Time-kill assay, bacterial burdens in vitro; assay type: cell-based, Pseudomonas aeruginosa; settings: PAB41, 1 × 10^5 CFU in 96-well plates; 1 h, 6 h, 12 h, 24 h; LP compared to single-treated groups
Method: as §2, §3

[5] = P. aeruginosa PA2 (multidrug-resistant clinical strain), micro-dilution, 1 × 10^5 CFU/mL, LB broth, 24 h, three repeats, read-out: MIC
[6] = P. aeruginosa PAB41 (carbapenem-resistant clinical strain), micro-dilution, 1 × 10^5 CFU/mL, LB broth, 24 h, three repeats, read-out: MIC
[7] = P. aeruginosa ATCC27853, micro-dilution, 1 × 10^5 CFU/mL, LB broth, 24 h, three repeats, read-out: MIC
[8] = P. aeruginosa PA14, micro-dilution, 1 × 10^5 CFU/mL, LB broth, 24 h, three repeats, read-out: MIC

| SMILES | MIC (P. aeruginosa PA2; [5]) | MIC (P. aeruginosa PAB41; [6]) | MIC (P. aeruginosa ATCC27853; [7]) | MIC (P. aeruginosa PA14 [1]; [8]) | FIC (lowest FIC Index) combined with Erythromycin (P. aeruginosa PA14 [2]) | FIC (lowest FIC Index) combined with Lincomycin (P. aeruginosa PA14 [2]) | FIC (lowest FIC Index) combined with Linezolid (P. aeruginosa PA14 [2]) | FIC (lowest FIC Index) combined with Nisin (P. aeruginosa PA14 [2]) | FIC (lowest FIC Index) combined with Vancomycin (P. aeruginosa PA14 [2]) | MIC [3] | further results |
| --- | --- | --- | --- | --- | --- | --- | --- | --- | --- | --- | --- |
| CCC[C@@H]1C[C@@H](C(=O)N[C@@H]([C@H]2O[C@H](SC)[C@H](O)[C@@H](O)[C@H]2O)[C@@H](C)O)N(C)C1 [Lincomycin, lincomycin] | > 256 µg/mL | > 256 µg/mL | > 256 µg/mL | > 256 µg/mL | – | – | – | – | – | – | – |
| CN(C)[C@@H]1C(O)=C(C(N)=O)C(=O)[C@@]2(O)C(O)=C3C(=O)c4c(O)ccc(Cl)c4[C@@](C)(O)[C@H]3C[C@@H]12 [Chlortetracycline, chlortetracycline] | 4 µg/mL (≈ 8.35 µM) | 8 µg/mL (≈ 16.7 µM) | 4 µg/mL (≈ 8.35 µM) | 4 µg/mL (≈ 8.35 µM) | – | – | – | – | – | – | – |
| CC(C)C[C@@H]1NC(=O)[C@@H](Cc2ccccc2)NC(=O)[C@H](CCN)NC(=O)[C@@H](NC(=O)[C@H](CCN)NC(=O)[C@@H](N)[C@@H](C)O)CCNC(=O)[C@H]([C@@H](C)O)NC(=O)[C@H](CCN)NC(=O)[C@H](CCN)NC1=O [PBNP, polymyxin B nonapeptide] (H-T[Dab][Dab][Dab][dF]L[Dab][Dab]T; lactam 3-C (inferred); N-terminus assumed) | – | – | – | – | 0.188 | 0.156 | 0.156 | 0.250 | 0.250 | over 256 µg/mL | – |
| CC1COc2c(N3CCN(C)CC3)c(F)cc3c(=O)c(C(=O)O)cn1c23 (stereo not drawn) [Ofloxacin, ofloxacin] | 0.5 µg/mL (≈ 1.38 µM) | 1 µg/mL (≈ 2.77 µM) | 0.5 µg/mL (≈ 1.38 µM) | 0.5 µg/mL (≈ 1.38 µM) | – | – | – | – | – | – | – |
| CC(C)C[C@@H]1NC(=O)[C@@H](CC(C)C)NC(=O)[C@H](CCN)NC(=O)[C@@H](NC(=O)[C@@H](N)CCN)CCNC(=O)[C@H]([C@@H](C)O)NC(=O)[C@H](CCN)NC(=O)[C@H](CCN)NC1=O [PEOP, polymyxin E octapeptide] (H-[Dab][Dab][Dab][dL]L[Dab][Dab]T; lactam 2-C (inferred); N-terminus assumed) | – | – | – | – | 0.313 | 0.141 | 0.188 | 0.313 | 0.125 | over 256 µg/mL | – |
| CC(C)C[C@@H]1NC(=O)[C@@H](CC(C)C)NC(=O)[C@H](CCN)NC(=O)[C@@H](N)CCNC(=O)[C@H]([C@@H](C)O)NC(=O)[C@H](CCN)NC(=O)[C@H](CCN)NC1=O [PEHP, polymyxin E heptapeptide] (H-[Dab][Dab][dL]L[Dab][Dab]T; lactam 1-C (inferred); N-terminus assumed) | – | – | – | – | 0.258 | 0.250 | 0.141 | 0.266 | 0.156 | over 256 µg/mL | – |
| CC(=O)NC[C@H]1CN(c2ccc(N3CCOCC3)c(F)c2)C(=O)O1 [Linezolid, linezolid] | > 256 µg/mL | > 256 µg/mL | > 256 µg/mL | > 256 µg/mL | – | – | – | – | – | – | bacterial loads inside C. elegans [4]: a great number of bacteria were detected; survival of infected C. elegans [4]: died at day 3; bacterial CFU / bactericidal activity (PA2): no remarkably bactericidal activity; bacterial CFU / bactericidal activity (PAB41): no remarkably bactericidal activity |
| CC1(C)S[C@@H]2[C@H](NC(=O)[C@H](N)c3ccccc3)C(=O)N2[C@H]1C(=O)O [Ampicillin, ampicillin] | – | 8 µg/mL (≈ 22.9 µM) | 4 µg/mL (≈ 11.4 µM) | – | – | – | – | – | – | – | – |
| CC[C@H]1OC(=O)[C@H](C)[C@@H](O[C@H]2C[C@@](C)(OC)[C@@H](O)[C@H](C)O2)[C@H](C)[C@@H](O[C@@H]2O[C@H](C)C[C@H](N(C)C)[C@H]2O)[C@](C)(O)C[C@@H](C)C(=O)[C@H](C)[C@@H](O)[C@]1(C)O [Erythromycin, erythromycin] | > 256 µg/mL | > 256 µg/mL | > 256 µg/mL | > 256 µg/mL | – | – | – | – | – | – | – |
| CN[C@H](CC(C)C)C(=O)N[C@H]1C(=O)N[C@@H](CC(N)=O)C(=O)N[C@H]2C(=O)N[C@H]3C(=O)N[C@H](C(=O)N[C@H](C(=O)O)c4cc(O)cc(O)c4-c4cc3ccc4O)[C@H](O)c3ccc(c(Cl)c3)Oc3cc2cc(c3O[C@@H]2O[C@H](CO)[C@@H](O)[C@H](O)[C@H]2O[C@H]2C[C@](C)(N)[C@H](O)[C@H](C)O2)Oc2ccc(cc2Cl)[C@H]1O [Vancomycin, vancomycin] | – | – | – | – | – | – | – | – | – | – | MIC (P. aeruginosa PA2; PA2, 24 h): > 256 µg/mL; MIC (P. aeruginosa PAB41; PAB41, 24 h): > 256 µg/mL; MIC (P. aeruginosa ATCC27853; ATCC27853, 24 h): > 256 µg/mL; MIC (P. aeruginosa PA14 [1]; PA14, 24 h): > 256 µg/mL |
| CN(C)c1cc(NC(=O)CNC(C)(C)C)c(O)c2c1C[C@H]1C[C@H]3[C@H](N(C)C)C(O)=C(C(N)=O)C(=O)[C@@]3(O)C(O)=C1C2=O [Tigecycline, tigecycline] | 4 µg/mL (≈ 6.83 µM) | 2 µg/mL (≈ 3.41 µM) | 4 µg/mL (≈ 6.83 µM) | 2 µg/mL (≈ 3.41 µM) | – | – | – | – | – | – | – |
| CC1(C)S[C@@H]2[C@H](NC(=O)Cc3ccccc3)C(=O)N2[C@H]1C(=O)O [Penicillin G, penicillin G] | 4 µg/mL (≈ 12 µM) | 4 µg/mL (≈ 12 µM) | 8 µg/mL (≈ 23.9 µM) | 8 µg/mL (≈ 23.9 µM) | – | – | – | – | – | – | – |
| CC(C)C[C@@H]1NC(=O)[C@@H](Cc2ccccc2)NC(=O)[C@H](CCN)NC(=O)[C@@H](N)CCNC(=O)[C@H]([C@@H](C)O)NC(=O)[C@H](CCN)NC(=O)[C@H](CCN)NC1=O [PBHP, polymyxin B heptapeptide] (H-[Dab][Dab][dF]L[Dab][Dab]T; lactam 1-C (inferred); N-terminus assumed) | – | – | – | – | 0.281 | 0.188 | 0.141 | 0.375 | 0.141 | over 256 µg/mL | – |
| CC(C)C[C@@H]1NC(=O)[C@@H](Cc2ccccc2)NC(=O)[C@H](CCN)NC(=O)[C@@H](NC(=O)[C@@H](N)CCN)CCNC(=O)[C@H]([C@@H](C)O)NC(=O)[C@H](CCN)NC(=O)[C@H](CCN)NC1=O [PBOP, polymyxin B octapeptide] (H-[Dab][Dab][Dab][dF]L[Dab][Dab]T; lactam 2-C (inferred); N-terminus assumed) | – | – | – | – | 0.156 | 0.094 | 0.078 | 0.313 | 0.156 | over 256 µg/mL | bacterial loads inside C. elegans [4]: a great number of bacteria were detected; survival of infected C. elegans [4]: died at day 3; bacterial CFU / bactericidal activity (PA2): no remarkably bactericidal activity; bacterial CFU / bactericidal activity (PAB41): no remarkably bactericidal activity |
| CC(C)C[C@@H]1NC(=O)[C@@H](CC(C)C)NC(=O)[C@H](CCN)NC(=O)[C@@H](NC(=O)[C@H](CCN)NC(=O)[C@@H](N)[C@@H](C)O)CCNC(=O)[C@H]([C@@H](C)O)NC(=O)[C@H](CCN)NC(=O)[C@H](CCN)NC1=O [PENP, polymyxin E nonapeptide] (H-T[Dab][Dab][Dab][dL]L[Dab][Dab]T; lactam 3-C (inferred); N-terminus assumed) | – | – | – | – | 0.281 | 0.125 | 0.281 | 0.375 | 0.188 | over 256 µg/mL | – |
